Where two headings read alike, the source gives them in different places.
How the values were obtained:
[1] = tested on: schizophrenic patients
Protocol: The statistics were performed according to the criterion of “last observation carried forward” (LOCF), i.e., the last PANSS scores of the patients who dropped out before the end of the study were carried forward to all subsequent observation days. For the comparison of the main efficacy parameter, the mean change in the PANSS between the two treatment groups, t-tests for independent samples were employed. […] For all other comparisons, two-tailed t-tests were used.

**Q.** With `Cc1nc2n(c(=O)c1CCN1CCC(c3noc4cc(F)ccc34)CC1)CCCC2O` (stereo not drawn) [9-OH-risperidone] as the compound, how does the “differences in the plasma levels between risperidone-celecoxib and risperidone-placebo treatment” value (human, in vivo) read?
**A.** The value was “without statistical significance”.

**Q.** For `Cc1ccc(-c2cc(C(F)(F)F)nn2-c2ccc(S(N)(=O)=O)cc2)cc1` [celecoxib], which “treatment of depressive states” value ([1]; add-on celecoxib therapy in schizophrenic patients) is on record?
**A.** Its value is “useful”.

**Q.** What about the “PANSS items lack of contact, emotional isolation, passive-apathic isolation, social withdrawal, depression, motor retardation” value ([1]; detailed item analysis, good celecoxib-responders vs placebo group, add-on to risperidone) of the same compound?
**A.** The value was “therapeutic effects”.

**Q.** What about the “factor analysis: items subsumed under the label agitation” value ([1]; response to celecoxib but not to placebo, add-on to risperidone) of the same compound?
**A.** Its value is “good therapeutic response”.

**Q.** For risperidone [placebo and risperidone], which “differences in the plasma levels between risperidone-celecoxib and risperidone-placebo treatment” value (plasma, during the study (FIG. 4)) is on record?
**A.** Its value is “without statistical significance”.

**Q.** And the PANSS global score ([1]; at the start of the study)?
**A.** Its PANSS global score is 37.2±7.1.

**Q.** And the PANSS negative score ([1]; at the start of the study)?
**A.** The PANSS negative score was 21.1±5.5.

**Q.** What about the PANSS total score ([1]; at the start of the study) of the same compound?
**A.** The PANSS total score was 75.4±12.9.

**Q.** What about the PANSS positive score ([1]; week 0 (start of the study), mean ± SD, 25 patients per group) of the same compound?
**A.** Its PANSS positive score is 17.2 ± 4.6.

**Q.** What about the PANSS positive score ([1]; week 0 (start of the study), mean ± SD, 25 patients per group, listed as risperidone-placebo) of the same compound?
**A.** Its PANSS positive score is 17.2±4.6.

**Q.** What about the PANSS positive score ([1]; week 1, LOCF) of the same compound?
**A.** The PANSS positive score was 16.2 ± 4.6.

**Q.** And the PANSS positive score ([1]; week 2, LOCF)?
**A.** The PANSS positive score was 15 ± 4.5.

**Q.** And the PANSS positive score ([1]; week 3, LOCF)?
**A.** The PANSS positive score was 14.5 ± 4.6.

**Q.** And the PANSS positive score ([1]; week 4, LOCF)?
**A.** The PANSS positive score was 14.2 ± 4.4.

**Q.** And the PANSS positive score ([1]; week 5, LOCF)?
**A.** The PANSS positive score was 13.3 ± 4.4.

Reference: patent publication US8088814B2, “Methods and compositions for the treatment of psychiatric disorders” (priority 2001, dated 2012)
